The values that follow come from US5252566A, “Antithrombotic agents” (priority 1992, dated 1993).

The target of the experiment is T1, thrombin (Bos taurus, UniProt P00735).
T1 construct: purchased
Kind of experiment: biochemical. On the procedure: The assay was carried out in 50 μl buffer (0.03M Tris, 0.15M NaCl, pH 7.4) with 25 μl of thrombin solution (0.21 mg/ml of thrombostat powder in 0.06M Tris, 0.3M NaCl, pH 7.4) and 150 μl of an aqueous solution of the chromogenic substrate at a concentration of 0.25 mg/ml. Solutions of test compound (25 μl) at various concentrations were added. Rates of hydrolysis of the substrate were measured by monitoring the reactions at 405 nm for the release of p-nitroaniline. Standard curves were constructed by plotting free thrombin concentration against hydrolysis rate. […] The amount of free inhibitor in each assay was calculated by subtracting the number of moles of bound thrombin from the number of moles of added inhibitor (test compound).
The Kass value is the hypothetical equilibrium constant for the reaction between thrombin and the test compound (I). [drawing 23]
Kass was calculated for a range of concentrations of test compounds and the mean value is reported in units of liter per mole.

The mark [1] stands for this setting: Table 1, mean over a range of concentrations of test compound, pH 7.4, read-out: Kass × 10^6 (Thrombin Inhibition Levels) (converted).

The structures appear in SMILES notation. Where a name gives a salt, the structure may show the parent alone. Read-outs that look alike come from different tables or passages of the source. Where a SMILES comes first, the peptide text is derived from it. [ ]: non-standard residue; d: D form. dTic = O=C(O)[C@H]1Cc2ccccc2CN1; Aze = O=C(O)[C@@H]1CCN1

For the compound `CC(=O)NC(C)(C(=O)N1CC[C@H]1C(=O)N[C@H](C=O)CCCNC(=N)N)c1ccccc1` (mixture of isomers) [Ac--Phg(α-CH3)--Azt--Arg--H, N--Acetyl--DL--Phg(α-CH3)--Azt--Arg--H], the Kd under setting [1] was 66.7 nM.

`CC(C)(C)OC(=O)NC(C)(C(=O)N1CC[C@H]1C(=O)N[C@H](C=O)CCCNC(=N)N)c1ccccc1` (mixture of isomers) [Boc--DL--Phg(α-CH3)--Azt--Arg--H, N--Boc--DL--Phg(α-CH3)--Azt--Arg--H] gave a Kd of 90.9 nM.

With `N=C(N)NCCC[C@@H](C=O)NC(=O)[C@@H]1CCN1C(=O)C1NCCc2ccccc21` (mixture of isomers) [DL-1-Tiq--Azt--Arg--H, DL-1,2,3,4-tetrahydroisoquinolin-1-oyl-L-azetidinyl-L-arginine aldehyde sulfate], the Kd under setting [1] is 37 nM.

Consider `CC(=O)N[C@@](C)(C(=O)N1CC[C@H]1C(=O)N[C@H](C=O)CCCNC(=N)N)c1ccccc1` [Ac--D--Phg(α-CH3)--Azt--Arg--H, N--Acetyl--D--Phg(α-CH3)--Azt--Arg--H], for which the Kd under setting [1] is 14.3 nM.

As for `CC(C)(C)OC(=O)N[C@@](C)(C(=O)N1CC[C@H]1C(=O)N[C@H](C=O)CCCN=C(N)N)c1ccccc1` [Boc--D--Phg(α-CH3)--Azt--Arg--H, N--Boc--D--Phg(α-CH3)--Azt--Arg--H], the Kd is 16.4 nM.

Consider `N=C(N)NCCC[C@@H](C=O)NC(=O)[C@@H]1CCN1C(=O)[C@H]1Cc2ccccc2CN1` [D-3-Tiq--Azt--Arg--H, D-1,2,3,4-Tetrahydroisoquinolin-3-oyl-L-azetidin-2-oyl-L-arginine aldehyde sulfate] (H-[dTic]-[Aze]-Arg-aldehyde), for which, under setting [1], the Kd was 28.6 nM.

Regarding `C[C@](NC(=O)C(F)(F)F)(C(=O)N1CC[C@H]1C(=O)N[C@H](C=O)CCCN=C(N)N)c1ccccc1` [TFA--D--Phg(α-Me)--Azt--Arg--H, N-[N-trifluoracetyl-D-(α-methyl)phenylglycyl)-L-azetidinyl-L-argininealdehyde hydrochloride], the Kd under setting [1] was 7.87 nM.
